Test results taken from US20190336579A1, “COMPOSITIONS AND METHODS TO INDUCE TARGETED APOPTOSIS BY MODULATING PROTEIN TYROSINE PHOSPHATASE 13 (PTPN13)” (National Jewish Health, priority 2010, published 2019).

Key:
[1] = tested on: PTPN13 protein; assay: PTPN13 protein expression by Western blot in lung fibroblasts; assay type: cell-based, human; settings: normal, fibrotic and MRC5 fibroblasts; TNF-α 10 ng/ml, IFN-γ 50 U/ml; 36 hours
Protocol: (§1) To assess the effects of these cytokines on PTPN13 expression, non-diseased normal human lung fibroblasts (NHLF), fibrotic human lung fibroblasts (FHLF) and a fetal lung fibroblast cell line, MRC5 cells, were treated with TNF-α (10/ng/ml), IFN-γ (50 U/ml) or with both cytokines for 6 hours. PTPN13 expression was measured by quantitative PCR (FIG. 2A). The primary lung fibroblasts from normal and fibrotic lung had equivalent levels of PTPN13 expression to the MRC5 lung fibroblast cell line. […] Treatment with TNF-α alone caused a 40% decrease in PTPN13 expression. Combined exposure to TNF-α and IFN-γ decreased PTPN13 mRNA expression by 80%. Protein lysates from normal, fibrotic and MRC5 fibroblasts treated for 36 hours with TNF-α (10/ng/ml), IFN-γ (50 U/ml) or with both cytokines were then analyzed for PTPN13 expression. […]
In one exemplary method, to assess whether PTPN13 expression prevents Fas-induced apoptosis, PTPN13 expression was knocked-down using siRNA. […] Apoptosis was assayed by quantifying activation of caspase-3 and caspase-8 (FIG. 3C).
FIG. 3: Decreased PTPN13 expression sensitizes fibroblasts to Fas-induced apoptosis. […] PTPN13 expression was quantified by western blot analysis and densitometry was performed. […] Fas activating antibody (250 ng/ml) (Fas activating antibody) or PBS (unstimulated) was added for 2 hours before analyzing Caspase-8 activation by a fluorescence-based assay. […]

[2] = tested on: PTPN13 mRNA; assay: PTPN13 mRNA expression by quantitative PCR in lung fibroblasts; assay type: cell-based, human; settings: NHLF, FHLF and MRC5 cells; TNF-α 10 ng/ml, IFN-γ 50 U/ml; 6 hours; compared to untreated cells
Protocol: as §1
FIG. 2: TNF-α and IFN-γ decrease PTPN13 expression. […] Top panel is a quantitative RT-PCR analysis of PTPN13 mRNA lower panel is a Western blot analysis for PTPN13 protein. […] Caspase-8 was measured using a fluorescence based assay.
Total RNA was obtained from 1×10^6 MRC5 cells using the Qiagen RNA Miniprep Kit (Qiagen) following the manufacturer's instructions. […] The fluorescence values of the threshold cycles were collected and normalized to GAPDH. Data are expressed as the relative change in mRNA expression compared to the untreated control.

[3] = Bleomycin murine model of fibrosis, mortality; assay type: in vivo, mice; settings: 2.5 U/kg bleomycin into the trachea
Protocol: To assess the effect of PTPN13 on development of fibrosis in vivo, we used a murine model of fibrosis in a PTPN13−/− mouse. The PTPN13−/− mouse has been characterized by Grusby to have abnormal STAT4 signaling which leads to augmented skewing toward TH1 or TH2 phenotypes. 2.5 U/kg bleomycin was administered directly into the tracheas of PTPN13−/− mice along with wildtype controls. […] Due to drastic weight decreases in the wildtype mice, two weeks was chosen as the end time point. […] Of the 20 wildtype mice treated with bleomycin, 11 (55%) died before two weeks as compared to the PTPN13−/− mice where three of the 20 (15%) died. Saline had no effect on mortality. Then static compliance was measured. […] Collagen content was measured in the lung using a hydroxyproline assay. […] To determine a possible cause for the decreased static compliance in the PTPN13−/− mice, we also measured other markers of lung disease, such as cellular infiltration and capillary leak. We measured the cellularity of the bronchoalveolar fluid (BALF). […] Capillary leak was determined by albumin present in the BALF (FIG. 6F). […] To validate these findings, stereology was performed on lung sections to quantify presence of collagen and diseased areas. […] Percentage of diseased lung was also measured by stereology. […]
FIG. 6: Deficiency of PTPN13−/− Leads to Decreased Bleomycin-induced Lung Fibrosis. […] Collagen content as measured by stereology. […]

| Substance | PTPN13 protein expression (Western blot) [1] | decrease in PTPN13 mRNA expression [2] | mortality before two weeks ([3]; PTPN13−/− mice, three of 20 died) [%] | mortality before two weeks ([3]; wildtype mice, 11 of 20 died) [%] |
| --- | --- | --- | --- | --- |
| IFN-γ: Recombinant human IFN-γ purchased from R&D Systems | not decreased | minimal decrease | – | – |
| TNF-α | decreased | 40% | – | – |
| bleomycin | – | – | 15 | 55 |
